In US10973810B2, “Methods for the treatment of neurological disorders” (Yumanity Therapeutics, Inc., priority 2017, dated 2021):

How the values were obtained:
human SCD5 = target: T1, human SCD5 (Homo sapiens, UniProt Q86SK9); experiment: Growth of humanized yeast surviving solely on human SCD5; assay type: cell-based; settings: for half-maximal inhibitory concentration (IC50), SCD5 humanized strain: growth inhibition
T1 construct: host or cells: S. cerevisiae ole1Δ strain (W303 pdr1Δ pdr3Δ background), plasmid pRS316 with TDH3 promoter and CYC1 terminator
T1 sequence (Q86SK9 1-330): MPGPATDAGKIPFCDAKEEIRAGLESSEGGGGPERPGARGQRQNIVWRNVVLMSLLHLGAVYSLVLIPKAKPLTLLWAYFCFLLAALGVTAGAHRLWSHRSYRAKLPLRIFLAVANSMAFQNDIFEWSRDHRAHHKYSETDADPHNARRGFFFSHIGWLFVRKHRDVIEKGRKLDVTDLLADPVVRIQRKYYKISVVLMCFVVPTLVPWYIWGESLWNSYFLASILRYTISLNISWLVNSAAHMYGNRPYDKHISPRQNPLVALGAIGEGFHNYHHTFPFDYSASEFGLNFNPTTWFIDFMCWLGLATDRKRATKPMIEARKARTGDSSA
From the text: (§1) To generate yeast strains expressing SCD1 or SCD5 as the sole desaturase, the human SCD1 and SCD5 genes were cloned from cDNAs (Harvard PlasmID database Clone ID HsCD00340237 for SCD1 and HsCD00342695 for SCD5) into yeast plasmid pRS316 (ATCC 77145) between the yeast TDH3 promoter and the CYC1 terminator. The coding sequence of yeast OLE1 was also cloned into this plasmid). These clones were then transformed into the ole1d strain and plated on CSM-Ura media (CSM lacking uracil) with 2% glucose (w/v) and independent colonies were isolated and amplified.
(§2) For experiments using a plasmid-borne copy of Ole1, SCD1, or SCD5 (FIGS. 3B, 6, and 7), media lacking uracil (SX-Ura, where X is glucose, raffinose, or galactose), was used for all steps of the compound profiling protocol to ensure its maintenance throughout the assay.
(§3) After yeast delivery, assay plates were incubated under humidified conditions at 30° C. for 24 to 40 h. ApoE4 rescue experiments were stopped at 24 h, aSyn experiments at 40 h, Ole1 at 24 h, and SCD1/SCD5 at 40 h. The growth of yeast was monitored by reading the OD600 of each well using a microplate reader (Perkin Elmer EnVision™). For model rescue experiments, raw data were processed by background subtracting and calculating a fold-change relative to DMSO control [(EXP-0.035)/(DMSO-0.035)—where 0.035 is the OD600 contributed by an empty well containing 30 μL of media alone]. For growth inhibition of wild-type cells, raw data were processed by background subtracting and converting values to a percent of the nontreated condition for that strain [(EXP-0.035)/(DMSO-0.035)×100%].

yeast OLE1 = target: T2, yeast OLE1 (Saccharomyces cerevisiae, UniProt P21147, L450T/T449L); experiment: Growth of yeast surviving solely on yeast OLE1; assay type: cell-based; settings: 24 h
T2 construct: expressed in transfected cells; host or cells: S. cerevisiae ole1Δ strain (W303 pdr1Δ pdr3Δ background), plasmid pRS316 with TDH3 promoter and CYC1 terminator
T2 sequence (P21147 whole entry T449L/L450T): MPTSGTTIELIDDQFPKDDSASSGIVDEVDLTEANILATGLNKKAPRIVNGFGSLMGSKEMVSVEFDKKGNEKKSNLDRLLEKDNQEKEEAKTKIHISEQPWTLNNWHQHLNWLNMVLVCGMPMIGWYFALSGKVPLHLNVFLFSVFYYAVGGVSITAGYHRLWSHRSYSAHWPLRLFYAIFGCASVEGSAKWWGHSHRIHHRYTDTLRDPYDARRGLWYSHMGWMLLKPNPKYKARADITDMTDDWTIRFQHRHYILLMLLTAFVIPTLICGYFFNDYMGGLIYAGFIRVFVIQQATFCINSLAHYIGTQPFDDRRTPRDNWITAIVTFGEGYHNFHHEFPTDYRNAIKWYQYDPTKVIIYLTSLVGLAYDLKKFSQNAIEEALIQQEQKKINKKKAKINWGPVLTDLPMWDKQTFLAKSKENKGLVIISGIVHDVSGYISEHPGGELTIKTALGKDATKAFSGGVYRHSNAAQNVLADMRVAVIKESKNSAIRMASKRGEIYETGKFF
From the text: as §1, §2, §3

human SCD1 = target: T3, human SCD1 (Homo sapiens, UniProt O00767); experiment: Growth of humanized yeast surviving solely on human SCD1; assay type: cell-based; settings: for half-maximal inhibitory concentration (IC50), SCD1 humanized strain: growth inhibition
T3 construct: host or cells: S. cerevisiae ole1Δ strain (W303 pdr1Δ pdr3Δ background), plasmid pRS316 with TDH3 promoter and CYC1 terminator
T3 sequence (O00767 1-359): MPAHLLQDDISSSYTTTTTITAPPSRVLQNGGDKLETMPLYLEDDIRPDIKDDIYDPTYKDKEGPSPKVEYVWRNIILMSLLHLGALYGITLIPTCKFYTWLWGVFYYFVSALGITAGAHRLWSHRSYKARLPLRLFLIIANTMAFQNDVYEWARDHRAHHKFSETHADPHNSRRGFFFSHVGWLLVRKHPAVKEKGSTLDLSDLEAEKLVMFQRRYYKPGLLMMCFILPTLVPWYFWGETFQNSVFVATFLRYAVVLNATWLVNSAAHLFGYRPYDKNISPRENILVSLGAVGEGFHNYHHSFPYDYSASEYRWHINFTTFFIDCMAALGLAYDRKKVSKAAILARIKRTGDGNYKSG
From the text: The coding sequence of yeast OLE1 was also cloned into this plasmid). These clones were then transformed into the ole1d strain and plated on CSM-Ura media (CSM lacking uracil) with 2% glucose (w/v) and independent colonies were isolated and amplified.
as §2
After yeast delivery, assay plates were incubated under humidified conditions at 30° C. for 24 to 40 h. ApoE4 rescue experiments were stopped at 24 h, aSyn experiments at 40 h, Ole1 at 24 h, and SCD1/SCD5 at 40 h. The growth of yeast was monitored by reading the OD600 of each well using a microplate reader (Perkin Elmer EnVision™).

[1] = system: cellular fatty acid desaturase activity (Ole1); experiment: Quantitative lipid profiling of treated yeast cells by LC-MS/MS; assay type: cell-based, Saccharomyces cerevisiae
Protocol: FIGS. 8A-8D are graphs showing that treatment of yeast cells with the 1,2,4-oxadiazole Compound 2 inhibits lipid desaturation. Exponentially-growing wild-type yeast cells were treated with the indicated doses of the 1,2,4-oxadiazole Compound 2 for the indicated times before cellular lysis, lipid extraction, and analysis by global LC-MS/MS profiling. The relative abundance (fraction of total cellular lipid signal) after 1.5 h and 8 h of the most abundant saturated lipid, phosphatidylcholine 26:0, is depicted in FIGS. 8A and 8B, respectively. The relative abundance after 1.5 h and 8 h drug treatment of the most abundant lipid with 2 or more degrees of unsaturation, phosphatidylcholine 16:1; 18:1, is depicted in FIGS. 8C and 8D, respectively.
Overnight cultures of yeast strain W303 pdr1Δ pdr3Δ were diluted into CSM media with 2% (w/v) raffinose, OD600 0.25, and grown for 4 h before resuspending at an OD600 of 0.2 in CSM media with 2% (w/v) galactose and adding Compound 2 or DMSO at the indicated concentrations. Cells were grown for the indicated timepoints before centrifugation, washing once in PBS, and freezing pellets. Lipids were extracted from pellets by resuspending the pellets in 600 μL methanol, 300 μL water, and 400 μL chloroform, followed by cell lysis by vortexing with glass beads for 1 min. Samples were then centrifuged at 10,000×g for 10 min, and the bottom layer that formed (organic/lipids) was moved into a new tube and evaporated. Samples were then analyzed by LC/MS/MS using a Thermo Scientific Q Exactive™ Orbitrap™ coupled to a Dionex UltiMate® 3000 ultra-high performance liquid chromatography system, following the method described in Tafesse et al. PLoS Pathog. 11(10): e1005188, 2015.

ApoE4 = ApoE4 Alzheimer's disease yeast model, rescue of toxicity (OD600 growth); assay type: cell-based, Saccharomyces cerevisiae; settings: 12-point dose; ApoE4 expression induced
From the text: Strain ApoE-mga2Δ was generated by amplifying 1000 base pairs (bp) upstream and downstream of the MGA2 ORF in a strain in which MGA2 was deleted using a G418 (GENETICIN®) resistance cassette (kanMX) (Piotrowski et al. Proc. Natl. Acad. Sci. USA 112(12):E1490-1497, 2015) and transforming the resulting deletion cassette into the ApoE4 strain in the BY4741 (ATCC 201388) genetic background. The ApoE strain is described, for example, in International Patent Application Publication No. WO 2016/040794, which is incorporated herein by reference in its entirety.
Yeast were cultured using standard techniques in complete synthetic media (CSM) and yeast nitrogen base supplemented with 2% (w/v) carbon source (glucose, raffinose, or galactose) to regulate the expression of the toxic disease protein. An initial starter culture was inoculated in 3 mL CSM-Glucose media and incubated overnight in a 30° C. shaker incubator (225 rpm). Saturated morning cultures were then diluted 1:20 in fresh CSM-Raffinose media and grown for 6 h to an OD600 (optical density) of 0.4-0.8 at 30° C. with shaking. […]
(§4) After yeast delivery, assay plates were incubated under humidified conditions at 30° C. for 24 to 40 h. […] The growth of yeast was monitored by reading the OD600 of each well using a microplate reader (Perkin Elmer EnVision™). […]

yeast = experiment: Yeast growth inhibition in control / wild-type condition (OD600); assay type: cell-based, Saccharomyces cerevisiae; settings: ApoE4 strain under non-inducing conditions (raffinose); at concentrations just above Emax of rescue
From the text: Strain GMYF was constructed from the ABC16/Green monster strain described in Suzuki et al. Nat. Methods 8(2):159-164, 2011. In this strain, YAP1 was deleted using a HIS3-MX6 cassette, and FLR1 was deleted using a NAT-MX6 cassette using standard methods. The knockout cassettes were PCR-amplified from plasmid templates (see, e.g., Bahler et al. Yeast 14(10):943-951, 1998; Longtine et al. Yeast 14(10):953-961, 1998) and transformed into yeast using lithium acetate-based transformation (Gietz et al. Methods Mol. Biol. 1205:1-12, 2014). The yap1::his3 deletion strain was selected on media lacking histidine and flr1::NAT on plates containing 100 μg/mL nourseothricin. All strains were confirmed by diagnostic PCR. Strain W303 pdr1Δ pdr3Δ was constructed from W303-1A (American Type Culture Collection (ATCC) 208352) by deleting PDR1 and PDR3 with kan-MX6 cassettes separately in MATa and MATa W303a isolates, mating, sporulating, and identifying the double deletion haploids by tetrad dissection and identification of non-parental ditype tetrads. Strain W-erg3 was derived from W303 pdr1 Δ pdr3Δ by deleting SNQ2 with NAT-MX6, YAP1 with HIS3-MX6, and ERG3 with BleMX. […]
as §4

SMILES | half-maximal inhibitory concentration (IC50), SCD5 humanized strain (human SCD5) | growth of yeast strain expressing Ole1 (percent of DMSO-treated condition) (yeast OLE1) | half-maximal inhibitory concentration (IC50), SCD1 humanized strain (human SCD1) | other results
O=C(O)Cn1nnc(-c2cc(N3CCC(Oc4cc(F)ccc4Br)CC3)no2)n1 [MK-8245] | low nanomolar | resistant | – | –
C[C@@H]1C[C@@H]([C@H](O)CC2CC(=O)NC(=O)C2)C(=O)[C@@H](C)C1 [Cyclohexamide] | – | inhibited growth of all three strains with the same potency | – | growth of SCD5-expressing yeast (percent of DMSO-treated condition) (human SCD5; 40 h): inhibited growth of all three strains with the same potency; growth of SCD1-expressing yeast (percent of DMSO-treated condition) (human SCD1; 40 h): inhibited growth of all three strains with the same potency
Cc1nnc(-c2ccc(N3CCC(Oc4ccccc4C(F)(F)F)CC3)nn2)s1 [MF-438] | low nanomolar | resistant | low nanomolar | –
CNC(=O)c1cccc(NC(=O)N2CCC(Oc3ccccc3Cl)CC2)c1 [Compound A939572] | low nanomolar | resistant | low nanomolar | –
Cc1nn(C)c2cc(-c3noc(C4CCN(C(=O)CNC(=O)c5ccccc5)CC4)n3)ccc12 [Compound 2, N-(2-(4-(3-(1,3-dimethyl-1H-indazol-6-yl)-1,2,4-oxadiazol-5-yl)piperidin-1-yl)-2-oxoethyl)benzamide] | – | – | – | lipid desaturation in yeast cells [1]: inhibited lipid desaturation; decrease in abundance of unsaturated lipid phosphatidylcholine 16:1, 18:1 ([1]; 8 h treatment, wild-type yeast): > 12 fold; increase in abundance of saturated lipid phosphatidylcholine 26:0 ([1]; after 8 h treatment, wild-type yeast): > 300 fold
COc1ccc(-c2noc(C3CCN(C(=O)CNC(=O)c4ccccc4)CC3)n2)cc1OC [Compound 1, N-(2-(4-(3-(3,4-dimethoxyphenyl)-1,2,4-oxadiazol-5-yl)piperidin-1-yl)-2-oxoethyl)benzamide] | – | – | – | rescue in ApoE4 model, dose-response curve (raw OD600) (ApoE4): bell-shaped dose-response curve; growth in control condition (yeast): growth decreased
